Measurements: patent publication EP4603105A1, “PHARMACEUTICAL COMPOSITION CONTAINING CYCLIC COMPOUND HAVING SELECTIVE KRAS INHIBITORY EFFECT AGAINST HRAS AND NRAS” (CHUGAI SEIYAKU KABUSHIKI KAISHA, priority 2022, dated 2024)
Where a SMILES comes first, the peptide text is derived from it. Bridges are numbered along the chain shown (N, C = ends). [ ]: non-standard residue; d: D form. The star is where a group is joined. hPhe(3,5-F2-4-CF3) = N[C@@H](CCc1cc(F)c(C(F)(F)F)c(F)c1)C(=O)O; hPhe(3-Cl-4-CF3) = N[C@@H](CCc1ccc(C(F)(F)F)c(Cl)c1)C(=O)O; NPrPhe(4-CF3) = CCCN[C@@H](Cc1ccc(C(F)(F)F)cc1)C(=O)O; NMeGly(cPent) = CN[C@H](C(=O)O)C1CCCC1; αMeF = C[C@](N)(Cc1ccccc1)C(=O)O; NMeD = CN[C@@H](CC(=O)O)C(=O)O; NMeL = CN[C@@H](CC(C)C)C(=O)O; αMeS = C[C@](N)(CO)C(=O)O; Morpholide = C1CN(*)CCO1; Ac5c = NC1(C(=O)O)CCCC1; Aze = O=C(O)[C@@H]1CCN1; Sar = CNCC(=O)O; tBu = CC(C)(C)*

What was measured:
HRAS wild-type protein = HRAS wild-type protein (Homo sapiens, UniProt P01112); assay: Binding to HRAS by surface plasmon resonance (SPR), KD and KD ratio to KRAS
Chain of HRAS wild-type protein (P01112 whole entry): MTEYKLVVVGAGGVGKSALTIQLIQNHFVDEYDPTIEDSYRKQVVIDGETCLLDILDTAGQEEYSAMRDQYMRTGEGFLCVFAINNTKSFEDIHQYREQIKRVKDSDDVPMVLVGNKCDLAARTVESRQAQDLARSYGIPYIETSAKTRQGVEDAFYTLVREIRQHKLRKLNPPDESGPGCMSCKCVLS
Summary of the method: (§1)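 Each cycle, GDP-bound biotin-Avi RAS was captured (~100–300 RU), compound concentrations were injected low to high for 75 s each at 100 µL/min, then the chip was regenerated. Buffer: HBS pH 7.4, 10 mM MgCl2, 10 µM GDP, 1 mM DTT, 4% DMSO; 30°C. KD from a 1:1 binding model.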

[1] = tested on: human lung cancer strain NCI-H441; format: cell-based
Summary of the method: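 Signal came from […] measured per well once the reagent was added. Beforehand, cells were cultured at 37°C and 5% carbon dioxide on a compound series serially diluted in dimethyl sulfoxide.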

[2] = target: GDP-bound NRAS wild-type protein (Homo sapiens, UniProt P01111); assay: Binding to NRAS by surface plasmon resonance (SPR), KD and KD ratio to KRAS
Chain of GDP-bound NRAS wild-type protein (P01111 whole entry): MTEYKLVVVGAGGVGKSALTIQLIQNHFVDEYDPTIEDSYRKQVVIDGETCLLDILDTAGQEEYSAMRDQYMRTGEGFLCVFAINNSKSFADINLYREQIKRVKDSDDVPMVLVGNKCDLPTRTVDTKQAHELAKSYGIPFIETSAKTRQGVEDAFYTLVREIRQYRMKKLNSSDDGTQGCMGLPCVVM
Summary of the method: as §1

[3] = ratio of the KD value with respect to HRAS wild-type protein to the KD value with respect to KRAS
[4] = ratio of the KD value with respect to GDP-bound NRAS wild-type protein to the KD value with respect to KRAS
[5] = ratio of KD value for HRAS wild-type protein to KD value for KRAS (SPR)
[6] = ratio of KD value for GDP-bound NRAS wild-type protein to KD value for KRAS (SPR)
[7] = ratio of KD for HRAS wild-type protein to KD for KRAS
[8] = ratio of KD for GDP-bound NRAS wild-type protein to KD for KRAS

IC50 [1]	SMILES	HRAS /KRAS (HRAS wild-type protein; [3])	NRAS /KRAS [2, 4]	HRAS /KRAS (HRAS wild-type protein; [5])	NRAS /KRAS [2, 6]	HRAS /KRAS (HRAS wild-type protein; [7])	NRAS /KRAS [2, 8]
86.6 nM	CCO[C@@H]1C[C@H]2C(=O)NC3(CCC3)C(=O)N(C)[C@@H](C(CC)CC)C(=O)N(C)C(C(C)C)CC(=O)N(C)[C@@H](CC)C(=O)N[C@@H]([C@@H](C)CC)C(=O)N(C)CC(=O)N(C)[C@H]3C/C=C\CCN(C3=O)[C@@H](Cc3ccc(C(F)(F)F)cc3)C(=O)N(C)CC(=O)N[C@@H](CCc3cc(F)c(C(F)(F)F)c(F)c3)C(=O)N2C1 (stereo partly drawn) [PP1589]	–	–	A (a compound having 10 or more and less than 20 is denoted as A)	A (a compound having 10 or more and less than 20 is denoted as A)	–	–
13.1 nM	CCCC[C@H]1C(=O)N[C@@H]([C@@H](C)CC)C(=O)N(C)CC(=O)N(C)[C@H]2C/C=C\CCN(C2=O)[C@@H](Cc2ccc(C)cc2)C(=O)N(C)CC(=O)N[C@@H](CCc2cc(F)c(C(F)(F)F)c(F)c2)C(=O)N2C[C@H](OCC)C[C@H]2C(=O)NC2(CC(C)(C)C2)C(=O)N(C)[C@@H](C2CCCC2)C(=O)N(C)[C@H](C(=O)N(C)CC)CC(=O)N1C [PP2808]	–	–	–	–	B (a compound having 3 or more and less than 10 is denoted as B)	B (a compound having 3 or more and less than 10 is denoted as B)
1.6 nM	CCO[C@@H]1C[C@H]2C(=O)NC3(CC(C)(C)C3)C(=O)N(C)[C@@H](C3CCCC3)C(=O)N(C)[C@H](C(=O)N(C)CC)CC(=O)N(C)[C@@H](CC)C(=O)N[C@@H]([C@@H](C)CC)C(=O)N(C)CC(=O)N(C)[C@H]3C/C=C\CCN(C3=O)[C@@H](Cc3ccc(C(F)(F)F)cc3)C(=O)N(C)CC(=O)N[C@@H](CCc3ccc(C(F)(F)F)c(OC)c3)C(=O)N2C1 [PP1653]	–	–	A (a compound having 10 or more and less than 20 is denoted as A)	A (a compound having 10 or more and less than 20 is denoted as A)	–	–
17.6 nM	CCO[C@@H]1C[C@H]2C(=O)NC3(CCC3)C(=O)N(C)[C@@H](C3CCCC3)C(=O)N(C)[C@H](CC)CC(=O)N(C)[C@@H](CC3CC3)C(=O)N[C@@H]([C@@H](C)CC)C(=O)N(C)CC(=O)N(C)[C@H]3C/C=C\CCN(C3=O)C(Cc3ccc(C(F)(F)F)cc3)C(=O)N(C)CC(=O)N[C@@H](CCc3cc(F)c(C(F)(F)F)c(F)c3)C(=O)N2C1 (stereo partly drawn) [PP1631]	–	–	B (a compound having 3 or more and less than 10 is denoted as B)	A (a compound having 10 or more and less than 20 is denoted as A)	–	–
34.4 nM	CCO[C@@H]1C[C@H]2C(=O)NC3(CCC3)C(=O)N(C)[C@@H](C3CCCC3)C(=O)N(C)[C@H](C(=O)N3CCOCC3)CC(=O)N(C)[C@@H](COC)C(=O)N[C@@H]([C@@H](C)CC)C(=O)N(C)CC(=O)N(C)[C@H]3CCCCCN(C3=O)[C@@H](Cc3ccc(C(F)(F)F)cc3)C(=O)N(C)CC(=O)N[C@@H](CCc3cc(F)c(C(F)(F)F)c(F)c3)C(=O)N2C1 [PP0689]	B (a compound having 3 or more and less than 10 is denoted as B)	B (a compound having 3 or more and less than 10 is denoted as B)	–	–	–	–
6.2 nM	CCO[C@@H]1C[C@H]2C(=O)NC3(CC(C)(C)C3)C(=O)N(C)[C@@H](C3CCCC3)C(=O)N(C)[C@H](C(=O)N(C)C)CC(=O)N(C)[C@@H](CC3CC3)C(=O)N[C@@H]([C@@H](C)CC)C(=O)N(C)CC(=O)N(C)[C@H]3C/C=C\CCN(C3=O)[C@@H](Cc3ccc(C(F)(F)F)cc3)C(=O)N(C)CC(=O)N[C@@H](CCc3cc(F)c(Cl)c(F)c3)C(=O)N2C1 [PP1759]	–	–	A (a compound having 10 or more and less than 20 is denoted as A)	A (a compound having 10 or more and less than 20 is denoted as A)	–	–

The next lines start with the compound.

SMILES	IC50 [1]	HRAS /KRAS (HRAS wild-type protein; [3])	NRAS /KRAS [2, 4]	HRAS /KRAS (HRAS wild-type protein; [5])	NRAS /KRAS [2, 6]	HRAS /KRAS (HRAS wild-type protein; [7])	NRAS /KRAS [2, 8]
CC[C@H](C)[C@@H]1NC(=O)[C@H](CC(C)C)N(C)C(=O)C[C@@H](C(=O)N2CCOCC2)N(C)C(=O)[C@H](C2CCCC2)N(C)C(=O)C2(CCCC2)NC(=O)[C@@H]2C[C@H](OC)CN2C(=O)[C@H](CCc2cc(F)c(C(F)(F)F)c(F)c2)NC(=O)CN(C)C(=O)[C@H](Cc2ccc(C(F)(F)F)cc2)N2CCCC[C@@H](C2=O)N(C)C(=O)CN(C)C1=O [PP0557]	14.8 nM	B (a compound having 3 or more and less than 10 is denoted as B)	B (a compound having 3 or more and less than 10 is denoted as B)	–	–	–	–
CCO[C@@H]1C[C@H]2C(=O)NC3(CC(C)(C)C3)C(=O)N(C)[C@@H](C3CCCC3)C(=O)N(C)[C@H](C(=O)N(C)CC)CC(=O)N(C)[C@H]3CCCC/C=C/c4ccc(cc4)C[C@@H](C(=O)N(C)CC(=O)N[C@@H](CCc4ccc(C(F)(F)F)c(OC)c4)C(=O)N2C1)N1CC/C=C\C[C@@H](C1=O)N(C)C(=O)CN(C)C(=O)[C@H]([C@@H](C)CC)NC3=O [PP1830]	4.7 nM	–	–	B (a compound having 3 or more and less than 10 is denoted as B)	A (a compound having 10 or more and less than 20 is denoted as A)	–	–
CCCN1C(=O)CN(C)C(=O)[C@@H]2CCN2C(=O)[C@H]([C@@H](C)CC)NC(=O)[C@H](CC(C)C)N(C)C(=O)C[C@@H](C(=O)N2CCOCC2)N(C)C(=O)[C@H](C2CCCC2)N(C)C(=O)C2(CCCC2)NC(=O)[C@@H]2CCCN2C(=O)[C@H](CCc2cc(F)c(C(F)(F)F)c(F)c2)NC(=O)CN(C)C(=O)[C@@H]1Cc1ccc(C(F)(F)F)cc1 [PP0770] ([NMeL]I[Aze][Sar][NPrPhe(4-CF3)][Sar][hPhe(3,5-F2-4-CF3)]P[Ac5c][NMeGly(cPent)][NMeD]-Morpholide; lactam N-11)	62.2 nM	–	–	–	–	B (a compound having 3 or more and less than 10 is denoted as B)	B (a compound having 3 or more and less than 10 is denoted as B)
CCCN1C(=O)[C@@H]2CCN2C(=O)CN(C)C(=O)[C@H]([C@@H](C)CC)NC(=O)[C@H](CC(C)C)N(C)C(=O)C[C@@H](C(=O)N2CCOCC2)N(C)C(=O)[C@H](C2CCCC2)N(C)C(=O)[C@](C)(COC(C)(C)C)NC(=O)[C@@H]2CCCN2C(=O)[C@H](CCc2cc(F)c(C(F)(F)F)c(F)c2)NC(=O)CN(C)C(=O)[C@@H]1Cc1ccc(C(F)(F)F)cc1 [PP0800] ([NMeL]I[Sar][Aze][NPrPhe(4-CF3)][Sar][hPhe(3,5-F2-4-CF3)]P[αMeS](tBu)[NMeGly(cPent)][NMeD]-Morpholide; lactam N-11)	186 nM	–	–	–	–	B (a compound having 3 or more and less than 10 is denoted as B)	C (A compound having a KD ratio of 0.1 or more and less than 3 is denoted as C)
CCC(CC)[C@H]1C(=O)N(C)[C@H](C(=O)N(C)C)CC(=O)N(C)[C@H]2CCC/C=C/c3ccc(cc3)C[C@@H](C(=O)N(C)CC(=O)N[C@@H](CCc3ccc(Cl)c(Cl)c3)C(=O)N3CCC[C@H]3C(=O)NC3(CC(C)(C)C3)C(=O)N1C)N1CC/C=C\C[C@@H](C1=O)N(C)C(=O)CN(C)C(=O)[C@H]([C@@H](C)CC)NC2=O [PP2603]	25.7 nM	–	–	–	–	A (a compound having 10 or more and less than 20 is denoted as A)	AA (a compound having 20 or more is denoted as AA)
CCCN1C(=O)CN(C)C(=O)CN(C)C(=O)[C@H]([C@@H](C)CC)NC(=O)[C@H](CC(C)C)N(C)C(=O)C[C@@H](C(=O)N(C)C)N(C)C(=O)[C@H](C2CCCC2)N(C)C(=O)[C@](C)(Cc2ccccc2)NC(=O)[C@@H]2CCCN2C(=O)[C@H](CCc2cc(F)c(C(F)(F)F)c(F)c2)NC(=O)CN(C)C(=O)[C@@H]1Cc1ccc(C(F)(F)F)cc1 [PP0740] ([NMeL]I[Sar][Sar][NPrPhe(4-CF3)][Sar][hPhe(3,5-F2-4-CF3)]P[αMeF][NMeGly(cPent)][NMeD]-NMe2; lactam N-11)	51.2 nM	C (A compound having a KD ratio of 0.1 or more and less than 3 is denoted as C)	B (a compound having 3 or more and less than 10 is denoted as B)	–	–	–	–
CC[C@H](C)[C@@H]1NC(=O)[C@H](C)N(C)C(=O)C[C@@H](C(=O)N(C)C)N(C)C(=O)[C@H](C2CCCC2)N(C)C(=O)C2(CCCC2)NC(=O)[C@@H]2CC(F)(F)CN2C(=O)[C@H](CCc2cc(F)c(C(F)(F)F)c(F)c2)NC(=O)CN(C)C(=O)[C@H](Cc2ccc(C(F)(F)F)cc2)N2CCCC[C@@H](C2=O)N(C)C(=O)CN(C)C1=O [PP0583]	10.3 nM	C (A compound having a KD ratio of 0.1 or more and less than 3 is denoted as C)	C (A compound having a KD ratio of 0.1 or more and less than 3 is denoted as C)	–	–	–	–
CC[C@H](C)[C@@H]1NC(=O)[C@H](CC(C)C)N(C)C(=O)C[C@@H](C(=O)N(C)C)N(C)C(=O)[C@H](C2CCCC2)N(C)C(=O)C2(CCC2)NC(=O)[C@@H]2CCCN2C(=O)[C@H](CCc2cc(F)c(C(F)(F)F)c(F)c2)NC(=O)CN(C)C(=O)[C@H](Cc2ccc(C(F)(F)F)cc2)N2CCCCC[C@@H](C2=O)N(C)C(=O)CN(C)C1=O [PP0512]	29.4 nM	B (a compound having 3 or more and less than 10 is denoted as B)	B (a compound having 3 or more and less than 10 is denoted as B)	–	–	–	–
CCCN1C(=O)[C@@H]2CCN2C(=O)CN(C)C(=O)[C@H]([C@@H](C)CC)NC(=O)[C@H](CC(C)C)N(C)C(=O)C[C@@H](C(=O)N(C)C)N(C)C(=O)[C@H](C2CCCC2)N(C)C(=O)C2(CCCC2)NC(=O)[C@@H]2CCCN2C(=O)[C@H](CCc2ccc(C(F)(F)F)c(Cl)c2)NC(=O)CN(C)C(=O)[C@@H]1Cc1ccc(C(F)(F)F)cc1 [PP0440] ([NMeL]I[Sar][Aze][NPrPhe(4-CF3)][Sar][hPhe(3-Cl-4-CF3)]P[Ac5c][NMeGly(cPent)][NMeD]-NMe2; lactam N-11)	4.4 nM	B (a compound having 3 or more and less than 10 is denoted as B)	C (A compound having a KD ratio of 0.1 or more and less than 3 is denoted as C)	–	–	–	–
